Source: PMC10878790 (The Journal of Biological Chemistry, 2024)
Entries after “also recorded” stand apart in the source; their conditions may differ. Square brackets hold non-standard residues; d marks the D form. Ends that are not written are not given here. Peptide text beside a SMILES is read from it.

Columns and labels:
[1] = system: MDA-MB-231 cells; test: Transwell invasion assay; type: cell-based; conditions: 24 h
Protocol: (§1) The wound healing assay was performed using two breast cancer cell lines, MDA-MB-231 and MCF-7, and two prostate cancer cell lines, PC-3 and DU-145, to evaluate the antimigratory capacity of the peptides. […] The cells were grown to approximately 80% confluency in 12-well tissue culture plates, and a cell-free area was created by scraping the monolayer. The peptides were added, and the cells were incubated at 37 °C with 5% CO2 for 24 h. Wound closure was assessed by imaging the wounds at 0 and 24 h, and the wound areas were quantified using ImageJ software (https://imagej.net/ij/). In the transwell invasion assay, MDA-MB-231 cells were serum starved for 4 h followed by a pretreatment with increasing concentrations of each peptide in a 0.1% serum-containing DMEM for 24 h. The cells were then trypsinized, resuspended in same media for the second treatment of peptides, and counted. Next, 40,000 cells were resuspended in 0.1% serum containing DMEM and added to the upper chamber of Transwell plates (Corning Life Sciences) with a polyethylene terephthalate membrane (6.4 mm diameter, 8 μm pore size). The bottom chambers were filled with DMEM containing 10% FBS as a chemoattractant. The transwell plates were incubated at 37 °C with 5% CO2 for 24 h to allow the invasion of cells through the membrane. The invaded cells on the lower side of the membrane were fixed with 4% paraformaldehyde for 15 min, followed by a PBS wash. The membrane inserts were further fixed with ice-cold methanol for 20 min and stained with 0.25% (w/v) crystal violet. After incubation, the noninvasive cells on the upper surface of the membrane were gently removed using a cotton swab. Random fields were chosen for imaging, and the number of invaded cells was counted using ImageJ software. The results were expressed as the average number of invaded cells compared with the control.

[2] = system: MDA-MB-231; type: cell-based; conditions: MTT, 48 hours
Protocol: (§2) MDA-MB-231, MCF-7, DU-145, PC-3, and NIH-3T3 cell lines were procured from the American Type Culture Collection and used within ten consecutive passages to ensure consistent cell behavior. MDA-MB-231, MCF-7, and NIH-3T3 cells were maintained at 37 °C and 5% CO2 in Dulbecco's modified Eagle's medium (DMEM) high glucose (Hyclone) supplemented with 10% fetal bovine serum (FBS) and 1% Antibiotic-Antimycotic (Gibco), while DU-145 and PC-3 cells were grown in RPMI-1640 supplemented with the same concentration of FBS and Antibiotic-Antimycotic. The media was replenished every 2 days. Cells were checked for mycoplasma at regular intervals using a PCR-based Mycoplasma detection kit plasmocin prophylactic (InvivoGen). In all experiments, cells were maintained in serum-free DMEM for 6 h before peptide treatment. Peptide treatment was done in the media containing 0.1% fetal bovine serum for 48 h in all the experiments unless otherwise stated.
(§3) Cell viability was determined by 3-[4,5-dimethylthiazol-2-yl]-2,5 diphenyl tetrazolium bromide (MTT) assay as described earlier ([52]). ProTox-II "Prediction of Toxicity of Chemicals" web server was used for toxicology assessment ([19]). See the Supporting Information for full experimental details.
(§4) Full Experimental Method for Cell Viability Assay:
(§5) Cell viability of murine NIH- 3T3 cells, as well as MDA- MB -231 , MC F-7, PC- 3, and DU-145 cells, wa s assessed through the MT T assay as described previously(1). Approximately
(§6) 5000 cells per well were seeded in a 96-well plate and allowed to incubate overnight for attachment. Following attachment, the growth medium was replaced wit h a fresh medium
(§7) containing serial dilutions of peptides. The cells we re then incubated for 48 hours in a 5% CO2 incubator . After incubation, 10 μl of a 5 mg/mL MT T solution was introduced to each
(§8) well and left to incubate for an additional 2 hours . Subsequently, the entire medium, along wit h the MT T solution, was aspirated, and the remaining formazan crystals were dissolved
(§9) in 200 μl of DMSO. The absorbance was measured at 595 nm using a Biotek Synergy 2 Plate Reader. […]
(§10) ProTox-II "Prediction of Toxicity of Chemicals" we b server was used for toxicology assessment. […]

[3] = system: MCF-7; type: cell-based; conditions: MTT, 48 hours
Protocol: as §2, §3, §4, §5, §6, §7, §8, §9, §10

[4] = system: DU-145; type: cell-based; conditions: MTT, 48 hours
Protocol: as §2, §3, §4, §5, §6, §7, §8, §9, §10

[5] = system: PC-3; type: cell-based; conditions: MTT, 48 hours
Protocol: as §2, §3, §4, §5, §6, §7, §8, §9, §10

[6] = system: NIH-3T3; type: cell-based, murine; conditions: MTT, 48 hours; normal cells
Protocol: as §2, §3, §4, §5, §6, §7, §8, §9, §10

[7] = system: MDA-MB-231 cells; test: Wound healing assay; type: cell-based; conditions: equimolar peptide concentrations; compared to untreated cells
Protocol: as §1

[8] = In vivo toxicity of peptides alone; parameters: species or system athymic nude mice; conditions: for body weight / signs of distress / survival: 90 mg/Kg ip on day 5, day 10 and day 15; for survival: after 30 days; for signs of toxicity: three ip doses of 90 mg/Kg, 90 mg/kg
Protocol: MDA-MB-231 cells were implanted orthotopically into the second thoracic mammary fat pad of nude mice (n = 5). […] The control mice received vehicle only. B, at the end of the experiments, representative tumors were removed and photographed. […] The tumor sizes were measured by a digital caliper and shown as mean volume ± SDs every alternate day for 30 days. […] The statistical analysis was performed on GraphPad Prism 9.4.0. […] E–H, Western blots of cell lysates prepared from the tumors of untreated tumor (Vehicle) versus LA3IK and RP-7 for apoptosis-associated proteins. Number of tumors taken for study = 4 per group. Densitometry was determined and normalized to β-actin. Bar graphs are densitometric data (means ± SD). Data analyzed by one-way ANOVA. ∗p < 0.05,∗∗p <0.01 and ∗∗∗p < 0.001. Full-length representative blots are in Figure S8(2). […] The mice were monitored for changes in body weights as a surrogate marker for toxicity.
Cleaved caspase-3 plays a pivotal role in transmitting apoptotic signals through its enzymatic actions on downstream targets, including PARP and other substrates. PARP, which is an ADP-ribosylating enzyme, is essential for initiating various types of DNA repair processes ([29]). However, when it is cleaved by activated caspase-3, PARP loses its functionality, leading to the suppression of DNA repair mechanisms. This, in turn, may promote cell death through both caspase-dependent and caspase-independent pathways of apoptosis ([30]).

[9] = Mouse liver microsome stability; conditions: for half-life at 2 μM / remaining at 2 h, 2 μM: male; for half-life at 2 μM: ICR/CD-1, mouse; for remaining at 2 h, 2 μM: Institute of Cancer Research/CD-1, mouse
Protocol: An NADPH-regenerating system (1.7 mg/ml NADP, 7.8 mg/ml glucose-6-phosphate, 6 U/ml glucose-6-phosphate dehydrogenase in 2% w/v NaHCO3/10 mm MgCl2) was added for analysis of Phase I metabolism after heating both the regenerating solution and the sample tubes to 37 °C for 5 min in a 37 °C shaking water bath. The incubation was continued and at varying time points after addition of phase I cofactors, the reaction was stopped by the addition of 0.5 ml of acetonitrile containing IS and formic acid such that the final concentration of IS was 100 ng/ml and acid was 0.1%. Time 0 samples were stopped with the acetonitrile solution while still on ice prior to addition of the NADPH regenerating system and compound, which were subsequently added. The samples were incubated for 10 min at room temperature and then spun at 16,100g for 5 min in a microcentrifuge at 4 °C. The supernatant was analyzed by LC-MS/MS. The method described by McNaney et al. was used with modification for determination of metabolic stability half-life by substrate depletion ([59]). A “% remaining” value was used to assess the metabolic stability of a compound over time. The LC-MS/MS peak area of the incubated sample at each time point was divided by the LC-MS/MS peak area of the time 0 (T0) sample and multiplied by 100. The natural Log (LN) of the % remaining of compound was then plotted versus time (in min) and a linear regression curve was plotted going through y-intercept at LN (100).

[10] = Pharmacokinetic studies in CD1 mice; conditions: in vivo, iv, 5 mg/kg
[11] = system: MDA-MB-231 cells; test: Western blot of MIEN1 signaling pathway proteins; type: cell-based; conditions: mean values of immunoblot densitometry
Protocol: Cells were exposed to the peptides and subjected to Western blot analysis with the indicated antibodies. […] Cytoplasmic and nuclear cell lysate extracts of EGF only and EGF plus peptide-treated cells were probed for p65 and p50. Lamin A/C and β-actin were used as nuclear and cytoplasmic loading control respectively. Densitometry was determined with immunoblots (N = 3) and normalized to total protein or β-actin for whole cell lysates and cytoplasmic fraction of peptide-treated MDA-MB-231 cells. In case of nuclear lysates, the immunoblots were normalized with Lamin A/C. Bar graphs are densitometric data (means ± SD). […] EGF concentration: (10 ng/ml); Peptide concentration: 90 μM. EGF, epidermal growth factor; MIEN1, migration and invasion enhancer 1; NF-κB, nuclear factor kappa B.
Western blot analysis was performed according to standard protocols to assess the effects of MIEN1-derived peptides and their analogs on MDA-MB-231 cells and DU-145 cells. Cell lysates were prepared using radioimmunoprecipitation assay buffer and quantified for protein content by bicinchoninic acid method. […] Protein blocking with 5% bovine serum albumin was followed by incubation with primary antibodies specific to various proteins at 4 °C for 8 to 10 h. The membrane was then washed three times in Tris Buffered Saline with Tween 20 and incubated with the appropriate secondary antibody. Protein bands were visualized using the Alpha Innotech chemiluminescent detection system. In case of MDA-MB-231 cells, cytoplasmic and nuclear extracts were isolated to investigate the effects of peptides and/or EGF stimulation. Prior to exposure to the cells, the test peptides (90 μM) were incubated with EGF (10 ng/ml) in media at 4 °C for 15 min. The untreated MDA-MB-231 cells received EGF alone at the same concentration. The isolation of cytoplasmic and nuclear fractions was performed using the Subcellular Protein Fractionation Kit for Cultured Cells from Thermo Fisher Scientific (cat #78840) following the manufacturer's guidelines. For Western blot experiments, 20 μg of purified cytoplasmic and nuclear fraction was used.
Densitometry analysis of Western blot data was conducted using the AlphaView-FluorChem HD2 software of the Alpha Innotech chemiluminescent detection system (https://www.cambridgescientific.com/product/alpha-innotech-fluorchem-hd2-gel-imaging-system). To quantify band intensities, a uniform rectangle was drawn around each band, and background subtraction was applied to determine the total pixel density for each lane. Further calculations, including the determination of the ratio of phosphorylated proteins to total proteins or other loading controls, were carried out using Microsoft Excel. […]

Compound | number of invaded MDA-MB-231 cells / inhibition of invasion [1] | IC50 [2] | IC50 [3] | IC50 [4] | IC50 [5] | IC50 [6] | inhibition of migration [7] | body weight / signs of distress [8] | survival [8] | signs of toxicity [8] | remaining at 2 h, 2 μM ([9]; microsomes, pH 7.5) | further results
LASAVK [LA-6, LASAVK] | limited inhibition | > 600 µM | > 600 µM | > 600 µM | > 600 µM | > 600 µM | limited inhibition | – | – | – | – | –
CC[C@H](C)[C@H](NC(=O)[C@H](C)NC(=O)[C@H](CC(C)C)NC(C)=O)C(=O)N[C@@H](C)C(=O)N[C@H](C(=O)N[C@@H](CCCCN)C(N)=O)C(C)C [LA3IK, LAIAVK] | – | – | – | – | – | – | – | No body weight loss or other signs of distress | All mice (N = 3) were alive | did not display any signs of toxicity; also recorded: no significant toxicity | – | half-life at 2 μM ([9]; liver microsomes, pH 7.5): > 2 h; remaining at 2 h, 2 μM ([9]; liver microsomes, pH 7.5): 83.7%
CC[C@H](C)[C@H](NC(=O)[C@@H](NC(=O)[C@H](CS)NC(=O)[C@@H]1CCCN1C(=O)[C@@H]1CCCN1C(=O)[C@H](CCCNC(=N)N)NC(=O)[C@H](CS)NC(C)=O)C(C)C)C(=O)N[C@@H](CC(C)C)C(N)=O [CR-8] (Ac-CRPPCVIL-NH2) | limited inhibition | – | – | – | – | – | limited inhibition | – | – | – | – | –
CC[C@@H](C)[C@@H](NC(=O)[C@H](NC(=O)[C@@H](CS)NC(=O)[C@H]1CCCN1C(=O)[C@H]1CCCN1C(=O)[C@@H](CCCNC(=N)N)NC(C)=O)C(C)C)C(=O)N[C@H](CC(C)C)C(N)=O [D-RP-7] (Ac-[dR][dP][dP][dC][dV][dI][dL]-NH2) | – | 95 ± 7.71 µM | 90 ± 10.3 µM | 122 ± 6.56 µM | 101 ± 5.73 µM | 210 ± 8.41 µM | – | – | – | – | 64.4% | half-life ([9]; mouse, microsomes, Mouse Liver Microsome T ½ (h), 2 μM peptide, 0.5 mg/ml microsome protein, NADPH-regenerating system): > 2 h; MRT ([10]; female, CD1, mouse): 5.7 h; Tmax ([10]; female, CD1, mouse): 4.8 min; Vd ([10]; female, CD1, mouse): 1700 L/kg; Cmax ([10]; mouse): 48 ng/mL; Vd ([10]; mouse): 1310 L/kg; clearance ([10]; mouse): 1420 mL/min/kg; half-life ([10]; mouse): 13.8 h; greater inhibition of FAK phosphorylation than L-peptide counterpart [11]: 24.2%; greater inhibition of SRC phosphorylation than L-peptide counterpart [11]: 29.5%
Ac-RPPCVIL-NH2 [RP-7] | – | 139 ± 8.41 µM | 110 ± 4.23 µM | 121 ± 7.08 µM | 113 ± 8.02 µM | 221 ± 6.23 µM | – | No body weight loss or other signs of distress | All mice (N = 3) were alive | did not display any signs of toxicity; also recorded: no significant toxicity | 17.7% | half-life at 2 μM ([9]; microsomes, pH 7.5, Mouse Liver Microsome T1/2, 2 μM peptide): 0.872 h; half-life at 2 μM ([9]; microsomes, pH 7.5, Mouse Liver Microsome T ½ (h), 2 μM peptide, 0.5 mg/ml microsome protein, NADPH-regenerating system): 0.87 h
Ac-SRPPCVIL-NH2 [SR-8] | limited inhibition | 528.3 ± 4.57 µM | 141 ± 12.9 µM | > 600 µM | > 600 µM | > 600 µM | limited inhibition | – | – | – | – | –
